Reference: paper PMC8129133, “Polymer-free corticosteroid dimer implants for controlled and sustained drug delivery” (Nature Communications, 2021)
Several values for one entry are separate records, joined by “and”; a condition that tells them apart may be missing. Equal values may be shown once.

Assay: In vitro release
Type: physicochemical
Conditions: for Cumulative Dex (%): Fig 4b pellet 1x1 mm; for 23G x 6 mm - Cumulative Dex Release, % / 30G x 6 mm - Cumulative Dex Release, % / 23G x 6 mm - Cumulative Dex Release / 30G x 6 mm - Cumulative Dex Release: Fig 4e; for 23G x 6 mm - Cumulative Dex Release, % / 30G x 6 mm - Cumulative Dex Release, %: AVG; for 23G x 6 mm - Cumulative Dex Release / 30G x 6 mm - Cumulative Dex Release: single samples and AVG
Method: Pellets for release studies. Crystalline drug dimers were weighed on a stainless steel coupon. In the case of blends with a second drug, the dimer and drug were mixed at the desired mass ratio with mortar and pestle prior to weighing. Samples were transferred to a heat press (Carver Laboratory Press). A PTFE mold containing an array of 1 mm diameter holes of 1 mm depth was placed on top of the melt, and pressure was applied for 2 min. Molded pellets were cooled to room temperature and punched out of the mold, yielding a pellet of 1 mm height × 1 mm diameter.
Release studies were carried out using different media, including PBS (pH 7.4, Gibco), 100% FBS (Sigma, F1051), 1% FBS in PBS pH 7.4, and 3.6% BSA (Sigma, A7906) in PBS (pH 7.4, Gibco). […] Samples were incubated in release medium at 37 °C under constant agitation on an orbital shaker at 115 rpm (VWR). At designated timepoints, sampling was performed by complete removal of medium and replenishment with fresh buffer. Sampling timepoints included 24 h and then every 3–4 days thereafter. For PBS release conditions, samples were analyzed directly. For samples with protein (100% FBS, 1% FBS, 3.6% BSA), protein was precipitated by addition of acetonitrile. Samples were vortexed and centrifuged to separate extracted drug from precipitated protein. The supernatant was then analyzed for drug concentration by HPLC.

C[C@@H]1C[C@H]2[C@@H]3CCC4=CC(=O)C=C[C@]4(C)[C@@]3(F)[C@@H](O)C[C@]2(C)[C@@]1(O)C(=O)COC(=O)OCCOCCOCCOC(=O)OCC(=O)[C@@]1(O)[C@H](C)C[C@H]2[C@@H]3CCC4=CC(=O)C=C[C@]4(C)[C@@]3(F)[C@@H](O)C[C@@]21C [Dex-TEG-Dex]
Cumulative Dex (%) (1% FBS, Day 1): 0.0326% and 0.0366% and 0.0447% | Cumulative Dex (%) (1% FBS, Day 3): 0.11% and 0.12% and 0.13% | Cumulative Dex (%) (1% FBS, Day 7): 0.35% and 0.44% and 0.38% | Cumulative Dex (%) (1% FBS, Day 10): 0.52% and 0.59% and 0.51% | Cumulative Dex (%) (1% FBS, Day 14): 0.81% and 0.96% and 0.85% | Cumulative Dex (%) (1% FBS, Day 17): 0.94% and 1.07% and 1.04% | Cumulative Dex (%) (1% FBS, Day 21): 1.22% and 1.44% and 1.42% | Cumulative Dex (%) (1% FBS, Day 24): 1.37% and 1.56% and 1.61% | Cumulative Dex (%) (1% FBS, Day 28): 1.58% and 1.84% and 1.93% | Cumulative Dex (%) (1% FBS, Day 31): 1.78% and 2.05% and 2.12% | Cumulative Dex (%) (1% FBS, Day 35): 1.95% and 2.46% and 2.48% | Cumulative Dex (%) (100% FBS, Day 1): 1.59% and 1.88% and 1.25% | Cumulative Dex (%) (100% FBS, Day 3): 6.12% and 9.16% and 4.64% | Cumulative Dex (%) (100% FBS, Day 7): 11.07% and 13.41% and 9.59% | Cumulative Dex (%) (100% FBS, Day 10): 15.60% and 21.36% and 19.29% | Cumulative Dex (%) (100% FBS, Day 14): 21.12% and 26.30% and 23.66% | Cumulative Dex (%) (100% FBS, Day 17): 25.65% and 33.52% and 29.96% | Cumulative Dex (%) (100% FBS, Day 21): 29.80% and 39.06% and 33.88% | Cumulative Dex (%) (100% FBS, Day 24): 34.99% and 43.22% and 37.26% | Cumulative Dex (%) (100% FBS, Day 28): 41.40% and 49.76% and 42.62% | Cumulative Dex (%) (100% FBS, Day 31): 49.48% and 56.79% and 48.41% | Cumulative Dex (%) (100% FBS, Day 35): 52.66% and 62.41% and 52.08% | Cumulative Dex (%) (PBS, Day 1): 0.0268% and 0.0111% and 0.0155% | Cumulative Dex (%) (PBS, Day 7): 0.06% and 0.0341% and 0.04% | Cumulative Dex (%) (PBS, Day 10): 0.075% and 0.04% and 0.05% | Cumulative Dex (%) (PBS, Day 14): 0.09% and 0.05% and 0.06% | Cumulative Dex (%) (PBS, Day 17): 0.10% and 0.0566% and 0.07% | Cumulative Dex (%) (PBS, Day 21): 0.12% and 0.07% and 0.09% | Cumulative Dex (%) (PBS, Day 24): 0.13% and 0.08% and 0.10% | Cumulative Dex (%) (PBS, Day 28): 0.15% and 0.09% and 0.11% | Cumulative Dex (%) (PBS, Day 31): 0.16% and 0.11% and 0.12% | Cumulative Dex (%) (PBS, Day 35): 0.17% and 0.12% and 0.13% | 23G x 6 mm - Cumulative Dex Release, % (Day 3): 1.00% | 30G x 6 mm - Cumulative Dex Release, % (Day 3): 4.68% | 23G x 6 mm - Cumulative Dex Release (Day 3): 3729.09 ng and 2929.83 ng and 3290.92 ng and 3423.46 ng and 3390.39 ng and 4152.03 ng | 30G x 6 mm - Cumulative Dex Release (Day 3): 3437.65 ng and 3035.80 ng and 2955.67 ng and 2307.19 ng and 3016.47 ng | 23G x 6 mm - Cumulative Dex Release (Day 3, mean): 3485.95 ng | 30G x 6 mm - Cumulative Dex Release (Day 3, mean): 2950.56 ng | 23G x 6 mm - Cumulative Dex Release, % (Day 8): 1.83% | 30G x 6 mm - Cumulative Dex Release, % (Day 8): 10.16% | 23G x 6 mm - Cumulative Dex Release (Day 8): 7366.47 ng and 5713.70 ng and 5752.02 ng and 6286.74 ng and 6353.56 ng and 6670.93 ng | 30G x 6 mm - Cumulative Dex Release (Day 8): 7053.30 ng and 6157.33 ng and 6454.99 ng and 5803.26 ng and 6543.46 ng | 23G x 6 mm - Cumulative Dex Release (Day 8, mean): 6357.24 ng | 30G x 6 mm - Cumulative Dex Release (Day 8, mean): 6402.47 ng | 23G x 6 mm - Cumulative Dex Release, % (Day 10): 2.30% | 30G x 6 mm - Cumulative Dex Release, % (Day 10): 11.65% | 23G x 6 mm - Cumulative Dex Release (Day 10): 9158.12 ng and 7456.22 ng and 6722.99 ng and 8377.04 ng and 7947.05 ng and 8287.22 ng | 30G x 6 mm - Cumulative Dex Release (Day 10): 7909.95 ng and 7094.85 ng and 7391.21 ng and 6693.85 ng and 7620.80 ng | 23G x 6 mm - Cumulative Dex Release (Day 10, mean): 7991.44 ng | 30G x 6 mm - Cumulative Dex Release (Day 10, mean): 7342.13 ng | 23G x 6 mm - Cumulative Dex Release, % (Day 14): 3.12% | 30G x 6 mm - Cumulative Dex Release, % (Day 14): 14.82% | 23G x 6 mm - Cumulative Dex Release (Day 14): 11851.57 ng and 10258.34 ng and 8632.68 ng and 12053.80 ng and 11294.23 ng and 11036.15 ng | 30G x 6 mm - Cumulative Dex Release (Day 14): 9732.58 ng and 9343.08 ng and 9295.87 ng and 8576.11 ng and 9731.17 ng | 23G x 6 mm - Cumulative Dex Release (Day 14, mean): 10854.46 ng | 30G x 6 mm - Cumulative Dex Release (Day 14, mean): 9335.76 ng | 23G x 6 mm - Cumulative Dex Release, % (Day 17): 3.78% | 30G x 6 mm - Cumulative Dex Release, % (Day 17): 17.41% | 23G x 6 mm - Cumulative Dex Release (Day 17): 14384.84 ng and 12536.91 ng and 10299.95 ng and 14655.10 ng and 13823.20 ng and 13226.26 ng | 30G x 6 mm - Cumulative Dex Release (Day 17): 11350.14 ng and 11189.72 ng and 10651.54 ng and 10149.26 ng and 11503.70 ng | 23G x 6 mm - Cumulative Dex Release (Day 17, mean): 13154.38 ng | 30G x 6 mm - Cumulative Dex Release (Day 17, mean): 10968.87 ng | 23G x 6 mm - Cumulative Dex Release, % (Day 21): 4.61% | 30G x 6 mm - Cumulative Dex Release, % (Day 21): 21.03% | 23G x 6 mm - Cumulative Dex Release (Day 21): 17889.27 ng and 15640.68 ng and 12427.10 ng and 17536.82 ng and 17079.10 ng and 15733.26 ng | 30G x 6 mm - Cumulative Dex Release (Day 21): 13690.06 ng and 13583.23 ng and 12649.08 ng and 12021.08 ng and 14305.00 ng | 23G x 6 mm - Cumulative Dex Release (Day 21, mean): 16051.04 ng | 30G x 6 mm - Cumulative Dex Release (Day 21, mean): 13249.69 ng | 23G x 6 mm - Cumulative Dex Release, % (Day 24): 5.14% | 30G x 6 mm - Cumulative Dex Release, % (Day 24): 23.23% | 23G x 6 mm - Cumulative Dex Release (Day 24): 20230.97 ng and 17190.29 ng and 13784.68 ng and 19329.36 ng and 19335.19 ng and 17491.78 ng | 30G x 6 mm - Cumulative Dex Release (Day 24): 15132.41 ng and 14970.59 ng and 13925.27 ng and 13373.61 ng and 15759.23 ng | 23G x 6 mm - Cumulative Dex Release (Day 24, mean): 17893.71 ng
